Laboratory results: US11110105B2, “Compounds, composition and uses thereof for treating cancer” (INSTITUT GUSTAVE ROUSSY, priority 2017, dated 2021)

Tests used:
[1] = MTT assay on MRC5 cell line; format: cell-based; conditions: human, MRC5 fibroblast cells, read-out: % cell viability (±SEM)
Protocol: MCA205 mouse sarcoma cell line is cultured at 37° C. under 5% CO2 in RPMI 1640 medium (Life Technologies) in the presence of 1% glutamine, 1% sodium pyruvate, 1% non-essential amino-acids, 1% penicillin/streptomycin and 10% FBS (Life Technologies) under standard conditions. B16F10 mouse melanoma cell line, MRC5 human fibroblast cell line and A375 human melanoma cell line are cultured at 37° C. under 5% CO2 in DMEM medium (Life Technologies) containing 1% glutamine, 1% penicillin/streptomycin and 10% FCS under standard conditions. A549 human lung carcinoma cell line is cultured at 37° C. under 5% CO2 in DMEM/F12+Glutamax I in the presence of 1% Hepes, 1% sodium pyruvate and 10% FBS under standard conditions. Stable MCA205-Globin-SL8-intron cell line are cultured under the same condition as MCA205 cell line with additional 2 mg/ml G418 (geneticin from Life Technologies) for selection. Stable B16F10-Globin-SL8-intron cell line are cultured under the same condition as B16F10 cell line with additional 2 mg/ml G418 (geneticin from Life Technologies) for selection. The SL8/Kb-specific (B3Z) T-cell reporter hybridoma are cultured at 37° C. under 5% CO2 in RPMI 1640 medium (Life Technologies) in the presence of 1% glutamine, 0.1% β-galactosidase, 1% penicillin/streptomycin and 10% FCS under standard conditions. […]

[2] = MTT assay on MCA205 cell line; format: cell-based, mouse; conditions: mouse, MCA205 sarcoma cells, MTT, read-out: % cell viability (±SEM)
Protocol: (§1) RNA was extracted and qRT-PCR was performed with primers amplifying the unspliced (intron) and the spliced (exon) globin-SL8-intron RNA. Data are given as mean ±SEM of the ratio of 2^−ΔΔCt intron and 2^−ΔΔCt exon of at least three independent experiments. […] Data are express as mean ±SEM of the percentage of viable cells compared to the control condition of at least three independent experiments. *P<0.05, **P<0.01, ***P<0.001 (unpaired student t test).
(§2) MCA205 mouse sarcoma cell line is cultured at 37° C. under 5% CO2 in RPMI 1640 medium (Life Technologies) in the presence of 1% glutamine, 1% sodium pyruvate, 1% non-essential amino-acids, 1% penicillin/streptomycin and 10% FBS (Life Technologies) under standard conditions. B16F10 mouse melanoma cell line, MRC5 human fibroblast cell line and A375 human melanoma cell line are cultured at 37° C. under 5% CO2 in DMEM medium (Life Technologies) containing 1% glutamine, 1% penicillin/streptomycin and 10% FCS under standard conditions. A549 human lung carcinoma cell line is cultured at 37° C. under 5% CO2 in DMEM/F12+Glutamax I in the presence of 1% Hepes, 1% sodium pyruvate and 10% FBS under standard conditions. Stable MCA205-Globin-SL8-intron cell line are cultured under the same condition as MCA205 cell line with additional 2 mg/ml G418 (geneticin from Life Technologies) for selection. Stable B16F10-Globin-SL8-intron cell line are cultured under the same condition as B16F10 cell line with additional 2 mg/ml G418 (geneticin from Life Technologies) for selection. The SL8/Kb-specific (B3Z) T-cell reporter hybridoma are cultured at 37° C. under 5% CO2 in RPMI 1640 medium (Life Technologies) in the presence of 1% glutamine, 0.1% β-galactosidase, 1% penicillin/streptomycin and 10% FCS under standard conditions.
(§3) MTT assay on MCA205 and B16F10 cell lines treated with 6.25 μM, 15 μM or 25 μM of isoginkgetin. Dare are given as the mean of the percentage of cell viability ±SEM from at least three independent experiments.

[3] = system: B16F10 globin-SL8-intron tumors; assay: Tumor challenge, B16F10 globin-SL8-intron in immunodeficient Nu/Nu nude mice; format: in vivo, mouse; conditions: 18 mg/kg intraperitoneally, days 5, 10 and 15
Protocol: (§4) (A) Experimental settings. Growth of (B) sarcoma MCA205 or (C) melanoma B16F10 cells that both stably express the globin-SL8-intron construct or (D) MCA205 Wild Type (WT) or (E) B16F10 WT cells that were subcutaneously inoculated on the flank of immunocompetent C57BL/6 mice injected intraperitoneally with 12 mg/kg or 18 mg/kg of isoginkgetin at days 5, 10 and 15 after inoculation. Tumor size was assessed every 3 to 4 days until reaching the established ethical endpoints. Each line represents the tumor size in area (mm^2) of 6 mice in each group. Size in area (mm^2) of (F) MCA205 globin-SL8-intron, (G) B16F10 globin-SL8-intron, (H) MCA205 WT or (I) B16F10 WT tumors subcutaneously inoculated on the flank of immunodeficient Nu/Nu Nude mice injected intraperitoneally with 18 mg/kg of isoginkgetin at days 5, 10 and 15 after inoculation. Data are presented at the day before the endpoints are reached.
Each line represents the tumor size in area (mm^2) of at least 6 mice in each group. The C right panel represents the tumor size at day 27. […]
Inventors then assessed the requirement of the immune response for isoginkgetin to reduce tumor growth Immunodeficient Nu/Nu nude mice were inoculated subcutaneously with either MCA205 or B16F10 cells that stably express the Globin-intron-SL8 or WT, and were treated with the same settings as previously described (FIG. 9A). […]

[4] = system: MCA205 mouse sarcoma cell line; assay: MTT assay on MCA205 cell line; format: cell-based; conditions: MCA205 WT cells, 15 μM or 35 μM
Protocol: as §1, §2, §3

MCA205 WT tumor = assay: Tumor challenge, MCA205 WT in immunocompetent C57BL/6 mice; format: in vivo, mouse; conditions: 18 mg/kg intraperitoneally, days 5, 10 and 15 (FIG. 11D)
Protocol: as §4
(§5) Data are given as mean ±SEM. *P<0.05, **P<0.01, ***P<0.001 (unpaired student t test). […] Tumor size was assessed every 3 to 4 days until reaching the established ethical endpoints. […]
(§6) The SL8 peptide has been widely shown to be highly immunogenic in vivo. […] At days 5, 10 and 15 after tumor inoculation, the mice were injected intraperitoneally with a define dose of isoginkgetin, and the tumor growth was monitored (FIG. 9A). […]

B16F10 WT tumor = assay: Tumor challenge, B16F10 WT in immunocompetent C57BL/6 mice; format: in vivo, mouse; conditions: 18 mg/kg intraperitoneally, days 5, 10 and 15 (FIG. 11D)
Protocol: as §4, §5, §6

[5] = system: H2-K^b molecules at the cell surface of B16F10 cells; assay: Flow cytometry of H2-K^b expression, B16F10; format: cell-based, mouse
Source text: Flow cytometry analyses of H2-K^b expression on MCA205 and B16F10 cells treated with (A) isoginkgetin. Flow cytometry analyses of transiently expressed H2-K^b expression on A375, A549 and MRC5 cells treated with (B) isoginkgetin.

Compound | viability at 2.5 µM ([1]; MRC5, 2.5 μM) | viability at 6.25 µM ([1]; MRC5, 6.25 μM) | viability at 6.25 µM ([2]; MCA205, 6.25 μM) | viability at 15 µM ([2]; MCA205, 15 μM) | viability at 25 µM ([2]; MCA205, 25 μM) | tumor growth [3] | toxicity (MTT, percentage of viable cells compared to control) [4] | tumor growth (MCA205 WT tumor) | tumor growth (B16F10 WT tumor) | expression of the H2-K^b molecules at the cell surface [5]
COc1ccc(-c2cc(=O)c3c(O)cc(O)c(-c4cc(-c5cc(=O)c6c(O)cc(O)cc6o5)ccc4OC)c3o2)cc1 [Isoginkgetin, isoginkgetin] | 100% | 100% | 84.8% | 56.3% | 51.7% | No effect |  |  |  | 
COc1ccc(-c2cc(=O)c3c(OC)cc(OP(=O)([O-])[O-])c(-c4cc(-c5cc(=O)c6c(OC)cc(OP(=O)([O-])[O-])cc6o5)ccc4OC)c3o2)cc1.[Na+].[Na+].[Na+].[Na+] [IM2P2] |  |  |  |  |  |  | no toxicity | did not impact tumor growth | did not impact tumor growth | is not affected
